Assay results as given in patent US12281122B1, “PI3K inhibitors” (Cogent Biosciences, Inc., priority 2023, dated 2025).

Experiments:
[1] = system: SKBR3 (PI3Kα-Wild Type) cell line; assay: HTRF phospho-AKT(S473) cell assay in SKBR3 cells; type: cell-based, human; settings: Homo sapiens, SK-BR-3; HTRF phospho-AKT(S473), SKBR3 (PI3Kα-Wild Type) cells, 2 hours compound incubation, PDGF-BB stimulated
How it was run: (§1)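 T47D: RPMI + 10% FBS + 0.2 units/mL insulin, top 5 μM. SKBR3: McCoy's 5A + 10% FBS, top 10 μM, 70 ng/ml PDGF-BB last 15 min. Both: 12-pt 1:3, 2 h, 37° C, max 0.5% DMSO; HTRF pAKT(S473); IC50.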

[2] = system: T47D (PI3Kα-H1047R) cell line; assay: HTRF phospho-AKT(S473) cell assay in T47D cells; type: cell-based, human; settings: Homo sapiens; HTRF phospho-AKT(S473), T47D (PI3Kα-H1047R) cells, 2 hours compound incubation
How it was run: as §1

| SMILES | IC50 [1] | IC50 [2] |
| --- | --- | --- |
| Cc1cc([C@@H](C)Nc2ccc(Cl)nc2C(=O)NS(C)(=O)=O)c2nc(N3C[C@H]4C[C@@H]3CN4c3ccc(C#N)cn3)n(C)c(=O)c2c1 [Compound 601, 6-chloro-3-(((R)-1-(2-((1R,4R)-5-(5-cyanopyridin-2-yl)-2,5-diazabicyclo [2.2.1]heptan-2-yl)-3,6-dimethyl-4-oxo-3,4-dihydroquinazolin-8-yl)ethyl)amino)-N-(methylsulfonyl) picolinamide] | 1000 to 5000 nM | 250 to 500 nM |
| Cc1cc([C@@H](C)Nc2ccc(Cl)nc2C(=O)NS(C)(=O)=O)c2nc(N3C[C@H]4C[C@@H]3CN4c3ccc(F)cn3)n(C)c(=O)c2c1 [Compound 602, 6-chloro-3-(((R)-1-(2-((1R,4R)-5-(5-fluoropyridin-2-yl)-2,5-diazabicyclo [2.2.1]heptan-2-yl)-3,6-dimethyl-4-oxo-3,4-dihydroquinazolin-8-yl)ethyl)amino)-N-(methylsulfonyl) picolinamide] | ≥ 5000 nM | 250 to 500 nM |
| Cc1cc([C@@H](C)Nc2ccc(Cl)nc2C(=O)NS(C)(=O)=O)c2nc(N3C[C@H]4C[C@@H]3CN4c3ccccn3)n(C)c(=O)c2c1 [Compound 603, 6-chloro-3-(((R)-1-(3,6-dimethyl-4-oxo-2-((1R,4R)-5-(pyridin-2-yl)-2,5-diazabicyclo [2.2.1]heptan-2-yl)-3,4-dihydroquinazolin-8-yl)ethyl)amino)-N-(methylsulfonyl) picolinamide] | ≥ 5000 nM | 500 to 1000 nM |
| Cc1cc([C@@H](C)Nc2ccc(Cl)nc2C(=O)NS(C)(=O)=O)c2nc(N3C[C@@H]4C[C@H]3CN4c3ccccn3)n(C)c(=O)c2c1 [Compound 604, 6-chloro-3-(((R)-1-(3,6-dimethyl-4-oxo-2-((1S,4S)-5-(pyridin-2-yl)-2,5-diazabicyclo [2.2.1]heptan-2-yl)-3,4-dihydroquinazolin-8-yl)ethyl)amino)-N-(methylsulfonyl) picolinamide] | ≥ 5000 nM | 250 to 500 nM |
| Cc1cc([C@@H](C)Nc2ccc(Cl)nc2C(=O)NS(C)(=O)=O)c2nc(N3C[C@H]4C[C@@H]3CN4c3nc(C)ncc3F)n(C)c(=O)c2c1 [Compound 605, 6-chloro-3-(((R)-1-(2-((1R,4R)-5-(5-fluoro-2-methylpyrimidin-4-yl)-2,5-diazabicyclo [2.2.1]heptan-2-yl)-3,6-dimethyl-4-oxo-3,4-dihydroquinazolin-8-yl)ethyl)amino)-N-(methylsulfonyl) picolinamide] | ≥ 5000 nM | 250 to 500 nM |
| Cc1cc([C@@H](C)Nc2ccc(Cl)nc2C(=O)NS(C)(=O)=O)c2nc(N3C[C@@H]4[C@H](C3)[C@H]4c3cnc(C)nc3)n(C3CC3)c(=O)c2c1 [Compound 606, 6-chloro-3-(((R)-1-(3-cyclopropyl-6-methyl-2-((1R,5S,6S)-6-(2-methylpyrimidin-5-yl)-3-azabicyclo[3.1.0]hexan-3-yl)-4-oxo-3,4-dihydroquinazolin-8-yl)ethyl)amino)-N-(methylsulfonyl) picolinamide] | ≥ 5000 nM | 250 to 500 nM |
| Cc1cc([C@@H](C)Nc2ccc(Cl)nc2C(=O)NS(C)(=O)=O)c2nc(N3CCC(c4cnc(C)nc4)CC3)n(C3CC3)c(=O)c2c1 [Compound 607, (R)-6-chloro-3-((1-(3-cyclopropyl-6-methyl-2-(4-(2-methylpyrimidin-5-yl)piperidin-1-yl)-4-oxo-3,4-dihydroquinazolin-8-yl)ethyl)amino)-N-(methylsulfonyl) picolinamide] | 1000 to 5000 nM | < 250 nM |
| Cc1cc([C@@H](C)Nc2ccc(Cl)nc2C(=O)NS(C)(=O)=O)c2nc(N3C[C@@H]4C[C@H]3CN4c3cnc(C)c(F)c3)n(C)c(=O)c2c1 [Compound 608, 6-chloro-3-(((R)-1-(2-((1S,4S)-5-(5-fluoro-6-methylpyridin-3-yl)-2,5-diazabicyclo [2.2.1]heptan-2-yl)-3,6-dimethyl-4-oxo-3,4-dihydroquinazolin-8-yl)ethyl)amino)-N-(methylsulfonyl) picolinamide] | ≥ 5000 nM | 500 to 1000 nM |
